Data: article PMC3458928, “Co-Factor Binding Confers Substrate Specificity to Xylose Reductase from Debaryomyces hansenii” (PLoS ONE, 2012)
Read-outs that look alike come from different tables or passages of the source. One block for each molecule: values may come before it.

Assays:
[1] = molecular target: apo-DhXR (wild type xylose reductase) (Debaryomyces hansenii, UniProt Q6BLI9); assay: Tryptophan fluorescence quenching titration, ligand binding to apo-DhXR wild type; details: wild type apo-DhXR, 25 °C
Protocol: (§1) Titrations of DhXR with ligands were examined by monitoring the intrinsic tryptophan fluorescence of DhXR using a Varian spectrofluorometer. Experiments were performed in indicated buffers as mentioned in the text. The excitation wavelength and emission wavelengths for monitoring DhXR-ligand interaction were 292 nm and 345 nm respectively. Slit widths were set to 5 nm for all experiments and PMT voltage was adjusted to get maximum signal for a given protein concentration. All experiments were done at 25.0±1°C. Initial readings of both the protein, Fprotein,0 and buffer, Fbuff,0 were taken, with F0 = Fprotein,0–Fbuff,0 defined as the initial fluorescence of the sample. The sample cuvette was then titrated with aliquots of ligands and mixed, and equilibrated for 3–4 minutes before measurement. Data points from five such measurements were averaged to obtain Fave,i. The relative fluorescence quenching upon sugar binding is defined as Qobs,i = (F0–Fave,i)/F0. All measurements were corrected for dilution, and inner filter effects.
(§2) Binding of ligands to DhXR was analyzed using two site binding model. [drawing 1] (1) where Q1 and Q2 are the fluorescence quenching corresponding to one and two ligands bound, respectively; L is concentration of free ligand in solution; K1,obs and K2,obs are association constants for the binding of the first and the second ligand molecule. Errors were calculated from fitting analysis of two independent experiments.
We examined the binding of D-xylose, xylitol, and NADPH to apo-DhXR. Quenching of tryptophan fluorescence upon ligand binding was used as the signal for monitoring the extent of binding. Apo-DhXR was excited at 292 nm and emission of tryptophan fluorescence was scanned between 300–375 nm (Fig. S2). […] Intrinsic site-specific binding constants are estimated from the macroscopic binding constants obtained from fitting by removing the statistical factors as in eq (2). [drawing 2] (2)

DhXR H109A mutant = DhXR H109A mutant (Debaryomyces hansenii, UniProt Q6BLI9, H109A); assay: biochemical; assay type: binding
Protocol: as §1, §2
(§3) We tested the activity of all mutants and activities were normalized to the activity of wild type DhXR with respect to its D-xylose reducing activity.

DhXR K76A mutant = DhXR K76A mutant (Debaryomyces hansenii, UniProt Q6BLI9, K76A); assay: biochemical; assay type: binding
Protocol: as §1, §2, §3

DhXR Y47A mutant = DhXR Y47A mutant (Debaryomyces hansenii, UniProt Q6BLI9, Y47A); assay: biochemical; assay type: binding
Protocol: as §1, §2, §3

holo-DhXR [2] = molecular target: T1, holo-DhXR (Debaryomyces hansenii, UniProt Q6BLI9); assay: Single point specific activity of holo-DhXR towards different sugars; assay type: biochemical; details: saturated sugar concentration (100 mM), 40 °C
Protocol: (§4) The xylose reductase activities of recombinant DhXR was determined spectrophotometrically by monitoring the change in A340 upon reduction of NADPH to NADP. The standard assay mixture contained 50 mM KPO4, pH 7.0, 100 mM sugar substrate, 0.3 mM NADPH, 0.18 µM of enzyme. Single point activity studies were performed at 40°C and all reactions were started by the addition of enzyme to a final volume of 0.8 ml (in standard assay condition). […] Errors for the activity assays were calculated from triplicate experiments. The kinetic parameters were determined using a range of substrate concentrations. Here, the reaction was performed at 25°C and assay mixture contained 50 mM KPO4, pH 7.0, 0.15 mM NADPH, 0.18 µM of enzyme and varying substrate concentrations. Steady state kinetics data were fit to Michaelis-Menten model, v = Vmax * [S]/([S]+Km), where Vmax, maximal velocity; Km, Michaelis-Menten constant; S, substrate concentration, and v, initial velocity.

holo-DhXR [3] = molecular target: T1, holo-DhXR; assay: Steady state kinetics of carbonyl substrate reduction by holo-DhXR (A340, NADPH); assay type: biochemical
Protocol: as §4
To understand the specificity determining component in catalysis, we studied the steady state kinetics of holo-DhXR towards different carbonyl substrates. […] Therefore, all kinetic data analyzed fitting to Michaelis-Menten model by Non-Linear Least Squares method. (Fig. 4A). Steady state kinetic parameters are also determined for other sugars (table 3, Fig. 4B). […] We compared the Km/Kd ratio as an indicator of net affinity loss for a given substrate (Fig. S5).
In order to further verify that holoenzyme discriminates between substrate and non-substrate sugars, we challenged the catalysis of D-xylose by adding non-substrate sugars during kinetic experiments. […] We studied the kinetics of D-xylose reduction by holo-DhXR in the presence of fixed concentration (∼40 mM) of three sugars (Fig. 4C).

holo-DhXR [4] = molecular target: T1, holo-DhXR; assay: Specific activity of DhXR with 100 mM D-xylose in presence of competing sugars; assay type: biochemical
Protocol: as §4
Assays were performed at 100 mM D-xylose and concentrations of competing sugars were varied (25 mM to 400 mM). […] Both DhXR and NADPH (20.0 µM) are pre-incubated and fluorescence signal was monitored until no further change. […] It should be noted that D-xylose is the substrate and is very likely to be reduced soon after binding.

[5] = molecular target: Xylose Reductase from Debaryomyces hansenii (Debaryomyces hansenii CBS767); assay: SEC; purified DhXR, single peak at 52 mL; column calibrated with ferritin, catalase, aldolase, albumin and ovalbumin; estimated mass ~71 kDa
[6] = substrate: O=C[C@H](O)[C@@H](O)[C@H](O)CO; assay: Steady state kinetics of carbonyl substrate reduction by holo-DhXR (A340, NADPH); assay type: biochemical, Debaryomyces hansenii; details: other: 25 °C, pH 7.0, 0.15 mM NADPH, 0.18 µM enzyme
[7] = 25 °C, pH 7.0, 0.15 mM NADPH, 0.18 µM enzyme

Molecule: OC[C@H]1O[C@@](CO)(O[C@H]2O[C@H](CO)[C@@H](O)[C@H](O)[C@H]2O)[C@@H](O)[C@@H]1O [Sucrose, sucrose]
Kd ([1]; Kd1,int, first site): 7.3 ± 1 mM | Kd ([1]; Kd2,int, second site): 19 ± 5 mM | Kd (DhXR H109A mutant): 5 ± 0.2 mM | reduction in affinity versus wild type (DhXR H109A mutant; H109A): no reduction | Kd (DhXR K76A mutant): 10 ± 1 mM | Kd (DhXR Y47A mutant): 11 ± 2 mM | reduction in affinity versus wild type (DhXR Y47A mutant; Y47A, first site): ~2 fold | reduction of holoenzyme activity compared with D-xylose (holo-DhXR [2]): more than 95%

Kd ([1]; first site, read-out: Kd1,int): 8.2 ± 1 mM
Molecule: OC[C@@H](O)[C@H](O)[C@@H](O)CO [Xylitol, xylitol]

Molecule: D-arabinose
Kd ([1]; first site, read-out: Kd1,int): 8.1 ± 1 mM | Kd ([1]; second site, read-out: Kd2,int): 100 ± 10 mM | Kd (DhXR H109A mutant; H109A, first site, read-out: Kd1,int): 28 ± 3 mM | Kd (DhXR K76A mutant; K76A, first site, read-out: Kd1,int): 34 ± 4 mM | reduction in affinity versus wild type (DhXR Y47A mutant; Y47A, first site): 8–10 fold | Kd (DhXR Y47A mutant; Y47A, first site, read-out: Kd1,int): 66 ± 13 mM | Vmax (holo-DhXR [3]; [7]): 127.2 ± 6.1 nmol/min | k cat (holo-DhXR [3]; [7]): 14.1 s⁻¹ | Km/Kd ratio (net affinity loss) (holo-DhXR [3]; Km of holoenzyme vs Kd of apoenzyme): ~220 fold | catalysis in steady state kinetic curves (in words) (holo-DhXR [3]; comparison of kinetic curves of different sugars): very weakly hydrolyzed | Km relative to that of D-xylose (holo-DhXR [3]; fold higher): 22 fold | Specific activity (holo-DhXR [4]; 25 mM sugar added in 100 mM D-xylose reaction): 69.4 ± 3.1 nmol/min | Specific activity (holo-DhXR [4]; 100 mM sugar added in 100 mM D-xylose reaction): 68.2 ± 3.7 nmol/min | Specific activity (holo-DhXR [4]; 400 mM sugar added in 100 mM D-xylose reaction): 66.5 ± 4.5 nmol/min

stoichiometry N [5]: 2
Molecule: Xylose Reductase from Debaryomyces hansenii (enzyme)

B1: holo-DhXR (Debaryomyces hansenii CBS767) (protein)
chain: MSIKLNSGYDMPLVGFGCWKVDNDTCAATIYNAIKVGYRLFDAAQDYGNCKEIGEGINKALDEGLVARDELFITSKLWNSYHDPKNVELALKKVLSDMKLDYLDLFLIHFPIAFKFVPIEERYPPGFYCGDGDKFHYENVPLADTWKAMEKLTKSGKVKSIGISNFSGALIYDLLRSAEIKPAVLQIEHHPYLQQPRLVEYVQSQNIAITGYSSFGPQSFLELKHSKALDTPTLFEHKTIKSIANKNKKTPAQVLLRWASQRNIAVIPKSNNPDRLLQNLEVNDFDLSKEDFEEISKLDQELRFNNPWDWDKIPIFA
Km [6]: 81 ± 6 mM | Vmax [6]: 0.185 µmol/min | kcat [6]: 20.6 s⁻¹ | kcat/Km [6]: 254 M⁻¹ s⁻¹
